Source: US6677315B2, “Nucleosides for imaging and treatment applications” (The United States of America as represented by the …, priority 1997, dated 2004)
One block for each compound: values may come before it.

Experiments:
K-562 cells [1] = test: Growth inhibition, 72-hr continuous exposure; type: cell-based, human
Experimental: (§1) The human-derived cell lines CEM, MOLT-4, RAJI, U-937, K-562 and the murine-derived L1210 were purchased from the American Type Culture Collection, Rockville, Md. Cells were grown and maintained as a suspension culture in RPMI 1640 medium containing L-glutamine and 10%(v/v) heat-inactivated fetal calf serum (BRL-GIBCO, Rockville, Md.). Penicillin-streptomycin solution (Sigma Chemical Co., St. Louis, Mo.) was added to achieve a final concentration of 100 units/mL. and 100 μg/mL respectively.
(§2) All cell lines, except for L1210, were suspended in fresh media at 30,000 cells/mL. L1210 cells were suspended at 10,000 cells/mL. Cells, 2 mL, were added to each of the wells of 24-well plates and incubated with either 0 to 1000 μM of FAU or 0 to 300 μM of FMAU. Incubation was conducted at 37° C. in a humidified 5% CO2 atmosphere for 72 hours. Inhibition of cellular growth was assessed by cell counting (Elzone 180, Particle Data, Inc., Elmhurst, IL). Under these conditions, the control doubling times for CEM, MOLT-4, RAJI, U-937, and K-562 cells were 21-22 hours, while the doubling times for L1210 was 8-10 hours.

RAJI cells [2] = test: Growth inhibition, 72-hr continuous exposure; type: cell-based, human; details: 72 hours continuous incubation
Experimental: as §1, §2

CEM cells [3] = test: Growth inhibition, 72-hr continuous exposure; type: cell-based, human
Experimental: as §1, §2

U-937 cells [4] = test: Growth inhibition, 72-hr continuous exposure; type: cell-based, human; details: U-937, 100 μM, 72 hours continuous incubation
Experimental: as §1, §2

MOLT-4 cells [5] = test: Growth inhibition, 72-hr continuous exposure; type: cell-based, human; details: MOLT-4, 100 μM, 72 hours continuous incubation
Experimental: as §1, §2

L1210 cells [6] = test: Intracellular nucleotide formation and incorporation into DNA; type: cell-based, murine; details: L1210, 10 μM FAU for 24 hours; incorporated as FMAU
Experimental: as §1
(§3) All cell lines, except for L1210, were resuspended in fresh media at 300,000 cells/mL with appropriate amount of radioactive drug. L1210 cells were resuspended at 150,000 cells/mL. […] Soluble nucleotides were determined for each cell line following exposure to 10 μM FAU. Incorporation of FAU into DNA (as FMAU) was determined over a range of FAU concentrations from 1 μM to 1 mM. […] These bases and soluble nucleotides were determined by previously reported HPLC-based methods as noted by Klecker et al. in the previously mentioned reference, “Toxicity, Metabolism, DNA Incorporation with Lack of Repair, and Lactate Production for 1-(2′-fluoro-2′-deoxy-β-D-arabinofuranosyl)-5-iodouracil in U-937 and MOLT-4-cells.” Drug incorporation into cellular DNA was determined using the equation: percent incorporation=100×([drug]/([dThd]+[drug]).

mice = test: Toxicity in mice after oral gavage for 14 days; type: in vivo; details: oral gavage 5 g/kg once per day for 14 days, plus 14 days observation
Experimental: (§4) The toxicity of the compounds of the present invention has been evaluated in an animal model system. FAU was administered by oral gavage to mice at a dose of 5 g/kg once per day for 14 consecutive days. After an additional 14 days of observation following this dosing period, the animals were sacrificed. […] Blood samples were obtained at various times during this treatment, to confirm that the drug was adequately absorbed. HPLC analysis of these samples indicated FAU concentrations in plasma reached maximum levels of 750 micromolar and minimum levels of 50 micromolar.

[7] = test system: CEM, MOLT-4, RAJI, U-937, K-562 and L1210 cells; test: Growth inhibition, 72-hr continuous exposure, all cell lines; type: cell-based, human; murine
Experimental: as §1, §2

L1210 cells [8] = test: Growth inhibition, 72-hr continuous exposure; type: cell-based, murine; details: L1210, 100 μM, 72 hours continuous incubation
Experimental: as §1, §2

[9] = test system: CEM, MOLT-4, RAJI, U-937, K-562 and L1210 cells; test: Intracellular nucleotide formation, all cell lines; type: cell-based, human; murine; details: incubation with 10 μM FAU for 24 hours
Experimental: as §1, §3

K-562 cells [10] = test: Intracellular nucleotide formation and incorporation into DNA; type: cell-based, human; details: K-562, 10 μM FAU for 24 hours
Experimental: as §1
(§5) All cell lines, except for L1210, were resuspended in fresh media at 300,000 cells/mL with appropriate amount of radioactive drug. L1210 cells were resuspended at 150,000 cells/mL. After 24 hours at 37° C. in a humidified 5% CO2 atmosphere, cells were harvested for nucleotide measurement and DNA incorporation. Soluble nucleotides were determined for each cell line following exposure to 10 μM FAU. Incorporation of FAU into DNA (as FMAU) was determined over a range of FAU concentrations from 1 μM to 1 mM. As described previously by Klecker, R W, Katki A G, Collins J M. in “Toxicity, Metabolism, DNA Incorporation with Lack of Repair, and Lactate Production for 1-(2′-Fluoro-2′-deoxy-β-D-arabinofuranosyl)-5-iodouracil in U-937 and MOLT-4-cells”, Mol. Pharmacol. 1994; 46;1204-1209; and Speth P A J, Kinsella T J, Chang A E, Klecker R W, Belanger K. Collins J M. in “Incorporation of Iododeoxyuridine into DNA of Hepatic Metastases Versus Normal Human Liver.” Clin. Pharmacol. Ther. 1988; 44:369-75, DNase I and phosphodiesterase I were used to release the bases from DNA. These bases and soluble nucleotides were determined by previously reported HPLC-based methods as noted by Klecker et al. in the previously mentioned reference, “Toxicity, Metabolism, DNA Incorporation with Lack of Repair, and Lactate Production for 1-(2′-fluoro-2′-deoxy-β-D-arabinofuranosyl)-5-iodouracil in U-937 and MOLT-4-cells.” Drug incorporation into cellular DNA was determined using the equation: percent incorporation=100×([drug]/([dThd]+[drug]).

RAJI cells [11] = test: as above; type: cell-based, human; details: 10 μM FAU for 24 hours
Experimental: as §1, §5

CEM cells [12] = test: as above; type: cell-based, human; details: 10 μM FAU for 24 hours
Experimental: as §1, §5

U-937 cells [13] = test: as above; type: cell-based, human; details: U-937, 10 μM FAU for 24 hours
Experimental: as §1, §5

MOLT-4 cells [14] = test: as above; type: cell-based, human; details: MOLT-4, 10 μM FAU for 24 hours
Experimental: as §1, §5

[15] = FAU plasma concentrations in mice during oral dosing (HPLC); type: in vivo; details: oral gavage 5 g/kg once per day for 14 days
Experimental: as §4

[16] = molecular target: T1, thymidylate synthase in L1210 cells (Mus musculus, UniProt P07607); test: Dehalogenation of IdUrd as probe for thymidylate synthase activity in situ; type: cell-based, murine; details: L1210, 3 μM [3H]-IdUrd for 24 hours, fraction in DNA
T1 construct: endogenous in cells; host or cells: L1210 cells
T1 sequence (P07607 whole entry): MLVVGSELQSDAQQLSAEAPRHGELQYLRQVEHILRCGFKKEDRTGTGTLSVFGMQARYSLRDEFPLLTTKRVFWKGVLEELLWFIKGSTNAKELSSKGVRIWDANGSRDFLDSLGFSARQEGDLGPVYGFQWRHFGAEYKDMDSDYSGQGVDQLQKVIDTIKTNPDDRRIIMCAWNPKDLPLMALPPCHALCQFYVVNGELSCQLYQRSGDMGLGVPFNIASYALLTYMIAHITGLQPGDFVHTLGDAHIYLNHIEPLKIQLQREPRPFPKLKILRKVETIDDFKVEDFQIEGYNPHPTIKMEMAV
Experimental: (§6) The relative activity of thymidylate synthase was determined after incubation of cells with 3 μM [3H]-IdUrd for 24 hours. DNA was harvested, digested, and chromatographed as described above. Some IdUrd was incorporated into DNA with the iodine remaining intact on the pyrimidine ring. After conversion to IdUMP, part of the IdUrd was dehalogenated by TS to dUMP, which then was converted by TS into dTMP and subsequently incorporated into DNA, and recovered in the DNA digest as [^3H-dThd]. Relative TS activity in situ was defined as the fraction of IdUrd-derived material in DNA which was dehalogenated, i.e., ([^3H]-dThd)/([^3H]-dThd+[^3H]-IdUrd). These methods could also be used with non-radioactive IdUrd, if a stable isotopic label is used, e.g., ^13C, ^15N or ^2H. A mass spectrometric detector would be substituted for the radioactivity detector in the HPLC analysis. Unlabeled IdUrd can't be used since its dehalogenation produced unlabeled dThd, which would be indistinguishable from the endogenous pool of dThd in DNA.

[17] = molecular target: T2, thymidylate synthase in RAJI cells (Homo sapiens, UniProt P04818); test: as above; type: cell-based; details: 3 μM [3H]-IdUrd for 24 hours, fraction in DNA
T2 construct: endogenous in cells; host or cells: RAJI cells
T2 sequence (P04818 whole entry): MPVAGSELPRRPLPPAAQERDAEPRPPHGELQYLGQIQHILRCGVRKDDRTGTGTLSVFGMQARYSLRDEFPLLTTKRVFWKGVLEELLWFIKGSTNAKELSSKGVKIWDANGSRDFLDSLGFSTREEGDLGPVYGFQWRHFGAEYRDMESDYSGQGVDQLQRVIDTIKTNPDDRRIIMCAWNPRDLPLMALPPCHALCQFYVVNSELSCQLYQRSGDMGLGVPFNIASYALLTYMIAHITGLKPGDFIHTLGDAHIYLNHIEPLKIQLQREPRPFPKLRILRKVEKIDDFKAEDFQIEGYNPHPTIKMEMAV
Experimental: as §6

[18] = molecular target: T3, thymidylate synthase in U-937 cells (Homo sapiens, UniProt P04818); test: as above; type: cell-based; details: U-937, 3 μM [3H]-IdUrd for 24 hours, fraction in DNA
T3 construct: endogenous in cells; host or cells: U-937 cells
T3 sequence (P04818 whole entry): as above
Experimental: as §6

[19] = molecular target: T4, thymidylate synthase in MOLT-4 cells (Homo sapiens, UniProt P04818); test: as above; type: cell-based; details: MOLT-4, 3 μM [3H]-IdUrd for 24 hours, fraction in DNA
T4 construct: endogenous in cells; host or cells: MOLT-4 cells
T4 sequence (P04818 whole entry): as above
Experimental: as §6

[20] = molecular target: T5, thymidylate synthase in CEM cells (Homo sapiens, UniProt P04818); test: as above; type: cell-based; details: 3 μM [3H]-IdUrd for 24 hours, fraction in DNA
T5 construct: endogenous in cells; host or cells: CEM cells
T5 sequence (P04818 whole entry): as above
Experimental: as §6

[21] = molecular target: T6, thymidylate synthase (TS) in U-937 cell extracts (Homo sapiens, UniProt P04818); test: Methylation of FAUMP by thymidylate synthase in cell extracts (tritium release); type: biochemical; details: 20 μM substrate, tritiated water release
T6 construct: Cell extracts were prepared from each cell line by sonication of intact cells; endogenous in cells; host or cells: U-937 cells (sonicated extract)
T6 sequence (P04818 whole entry): as above
Experimental: (§7) When TS adds a methyl group to the 5-position of dUMP to generate dTMP, the proton at that location is released. When [5-^3H]dUMP is the substrate, TS activity in cell extracts can be assessed by monitoring the accumulation rate of tritiated water. Here, [5-^3H]FAUMP was used as the substrate for methylation by TS, and the generation of FMAUMP was determined from the release of tritiated water. Cell extracts were prepared from each cell line by sonication of intact cells. (See: Armstrong R D, Diasio R B. “Improved Measurement of Thymidylate Synthetase Activity by a Modified Tritium-Release Assay” J. Biochem. Biophys. Methods. 1982; 6: 141-7 and Speth P A J, Kinsella T J, Chang A E, Klecker R W, Belanger K. Collins J M. “Incorporation of Iododeoxyuridine into DNA of Hepatic Metastases Versus Normal Human Liver” Clin. Pharmacol. Ther. 1988; 44:369-75.) The methyl donor was provided by 5,10-methylene tetrahydrofolate, which was generated in situ by the addition of formaldehyde to tetrahydrofolate. At various times after the addition of substrate (20 μM of either [5-^3H]dUMP or [5-^3H]FAUMP), the reaction was stopped by addition of HCl. Unreacted substrate was separated from tritiated water by adsorption onto activated charcoal. After centrifugation, an aliquot of the supernatant was counted for tritiated water.

[22] = test system: thymidylate synthase (TS) in cell extracts of the other cell lines; test: Methylation of FAUMP by thymidylate synthase in cell extracts (tritium release), other cell lines; type: biochemical, human; murine; details: 20 μM substrate, tritiated water release
Experimental: as §7

Compound: O=c1ccn([C@@H]2O[C@H](CO)[C@@H](O)[C@@H]2F)c(=O)[nH]1 [FAU, 1-(2′Fluoro-2′deoxy-β-D-arabinofuranosyl)-uracil]
growth inhibition (K-562 cells [1]; K-562, 100 μM, 72 hours continuous incubation): somewhat less inhibited
growth inhibition (RAJI cells [2]; 100 μM): completely uninhibited
growth inhibition (CEM cells [3]; 100 μM, 72 hours continuous incubation): more than 50%
growth inhibition (U-937 cells [4]): more than 50%
growth inhibition (MOLT-4 cells [5]): somewhat less inhibited
DNA % incorp (L1210 cells [6]): 0.08 ± 0.005%
histopathologic examination of murine tissues (toxicity) (mice): no toxicity attributable to the drug treatment
IC50 values relative to FMAU (fold higher) [7]: 10 fold
growth inhibition (L1210 cells [8]): completely uninhibited
amounts of FMAUMP or FMAUDP found intracellularly [9]: trace amounts
FAUMP formed intracellularly (K-562 cells [10]): 11.1 ± 0.9 nmol/10^6 cells
DNA % incorp (K-562 cells [10]; incorporated as FMAU): 0.22 ± 0.002%
FAUMP formed intracellularly (RAJI cells [11]): 0.95 ± 0.17 nmol/10^6 cells
DNA % incorp (RAJI cells [11]; incorporated as FMAU): 0.09 ± 0.002%
FAUMP formed intracellularly (CEM cells [12]): 0.96 ± 0.24 nmol/10^6 cells
FMAUTP formed intracellularly (CEM cells [12]): 2.30 ± 0.28 nmol/10^6 cells
DNA % incorp (CEM cells [12]; incorporated as FMAU): 0.81 ± 0.10%
FAUMP formed intracellularly (U-937 cells [13]): 2.70 ± 0.69 nmol/10^6 cells
FMAUTP formed intracellularly (U-937 cells [13]): 1.99 ± 0.08 nmol/10^6 cells
DNA % incorp (U-937 cells [13]; incorporated as FMAU): 0.50 ± 0.02%
FMAUTP formed intracellularly (MOLT-4 cells [14]): 1.92 ± 0.55 nmol/10^6 cells
DNA % incorp (MOLT-4 cells [14]; incorporated as FMAU): 0.19 ± 0.01%
FAU concentration in plasma, maximum level [15]: 750 µM
FAU concentration in plasma, minimum level [15]: 50 µM

relative dehalogenation of IdUrd [16]: ≤ 15%
relative dehalogenation of IdUrd [17]: ≤ 15%
relative dehalogenation of IdUrd [18]: ≥ 50%
relative dehalogenation of IdUrd [19]: ≥ 50%
relative dehalogenation of IdUrd [20]: ≥ 50%
Compound: O=c1[nH]c(=O)n([C@H]2C[C@H](O)[C@@H](CO)O2)cc1I [IdUrd, Iododeoxyuridine]

rate of conversion to FMAUMP as % of the rate of dTMP formation from dUMP [21]: about 1%
Compound: O=c1ccn([C@@H]2O[C@H](COP(=O)(O)O)[C@@H](O)[C@@H]2F)c(=O)[nH]1 [FAUMP, FAU monophosphate]
rate of conversion to FMAUMP as % of the rate of dTMP formation from dUMP [22]: 0.97-1.5%

Compound: Cc1cn([C@H]2O[C@H](CO)[C@@H](O)[C@@H]2F)c(=O)[nH]c1=O [FMAU, 1-(2-deoxy-2-fluoro-alpha-D-arabinofuranosyl)thymine, reference compound]
inhibition at 100 µM (K-562 cells [1]; Homo sapiens, K562, K-562, 100 μM, 72 hours continuous incubation): > 80%
effect on cell growth (K-562 cells [1]; K-562, 0.3 μM (lowest concentration used), 72 hours): substantial effect
inhibition at 100 µM (RAJI cells [2]; Homo sapiens): > 80%
effect on cell growth (CEM cells [3]; 0.3 μM (lowest concentration used), 72 hours): substantial effect
inhibition at 100 µM (CEM cells [3]; Homo sapiens, CCRF-CEM, 100 μM, 72 hours continuous incubation): > 80%
inhibition at 100 µM (U-937 cells [4]; Homo sapiens): > 80%
inhibition at 100 µM (MOLT-4 cells [5]; Homo sapiens): > 80%
inhibition at 100 µM (L1210 cells [8]; Mus musculus): > 80%
